Patent US20260083865A1, “PROSTATE SPECIFIC MEMBRANE ANTIGEN (PSMA) LIGANDS AND USE THEREOF” (priority 2022, published 2026)
Numbered stars: 1 amine (or outer) side, 2 acyl side, 3 side chain; on linkers, the order of the positions; unused ones are H or OH. Bridge positions count the residues as written; N and C are the ends. Square brackets hold non-standard residues; d marks the D form. Peptide text beside a SMILES is read from it. * marks the point of attachment. X7 = O=C(O)CN1CCN(CC(=O)O)CCN(CC(=O)NC2CCN(CC(=O)*)CC2)CCN(CC(=O)O)CC1; X3 = O=C(O)CN1CCN(CC(=O)O)CCN(CC(=O)NCCCOCCOCCOCCCN*)CCN(CC(=O)O)CC1; DOTA = O=C(O)CN1CCN(CC(=O)O)CCN(CC(=O)*)CCN(CC(=O)O)CC1; X13 = C/N=C(/NC)N(C)CCC[C@H](N[*:1])C(=O)[*:2]; Phe(3-Cl) = N[C@@H](Cc1cccc(Cl)c1)C(=O)O; Phe(4-Cl) = N[C@@H](Cc1ccc(Cl)cc1)C(=O)O; Arg(Me) = CNC(=N)NCCC[C@H](N)C(=O)O; X1 = O=C(CC1CCN([*:1])CC1)[*:2]; Lys(Me) = CNCCCC[C@H](N)C(=O)O; dTle = CC(C)(C)[C@@H](N)C(=O)O; αMeD = C[C@](N)(CC(=O)O)C(=O)O; Suc = O=C(CCC(=O)[*:2])[*:1]; Tle = CC(C)(C)[C@H](N)C(=O)O; Isovaleryl = CC(C)CC(=O)*; Aib = CC(C)(N)C(=O)O; βAla = NCCC(=O)O

How the values were obtained:
[1] = target: T1, PSMA-expressing C4-2 cells (Homo sapiens, UniProt Q04609); assay: FACS binding assay (competition with 50 nM PSM-0183); details: FACS binding, PSMA-expressing C4-2 cells; pIC50 category; read-out: pIC50 [C4-2] CAT (converted)
T1 construct: PSMA-expressing C4-2 cells (ATCC, Cat. No. CRL-3314) were cultured in RPMI-1640; host or cells: C4-2 cells
T1 sequence (Q04609 whole entry): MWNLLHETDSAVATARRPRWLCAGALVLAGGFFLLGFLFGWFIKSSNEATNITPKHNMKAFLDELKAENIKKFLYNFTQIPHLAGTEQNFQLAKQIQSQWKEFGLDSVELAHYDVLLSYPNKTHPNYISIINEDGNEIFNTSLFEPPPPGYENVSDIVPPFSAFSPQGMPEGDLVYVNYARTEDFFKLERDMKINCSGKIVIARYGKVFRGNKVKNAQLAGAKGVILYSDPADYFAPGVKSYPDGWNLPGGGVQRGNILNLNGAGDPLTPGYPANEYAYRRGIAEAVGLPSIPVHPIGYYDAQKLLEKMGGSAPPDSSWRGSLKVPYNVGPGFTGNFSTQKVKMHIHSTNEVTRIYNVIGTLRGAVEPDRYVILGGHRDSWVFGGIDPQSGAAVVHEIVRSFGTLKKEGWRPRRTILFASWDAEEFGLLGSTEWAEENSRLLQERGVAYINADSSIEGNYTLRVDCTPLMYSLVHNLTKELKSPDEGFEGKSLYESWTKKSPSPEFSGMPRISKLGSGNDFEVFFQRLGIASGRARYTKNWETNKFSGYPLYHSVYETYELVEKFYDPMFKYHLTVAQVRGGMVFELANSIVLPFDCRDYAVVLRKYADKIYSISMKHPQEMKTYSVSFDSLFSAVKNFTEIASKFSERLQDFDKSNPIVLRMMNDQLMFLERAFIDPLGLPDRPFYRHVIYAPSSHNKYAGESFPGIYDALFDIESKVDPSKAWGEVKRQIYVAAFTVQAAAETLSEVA
Procedure, shortened: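 Competition format: fluorescent tracer PSM-0183 (50 nM) displaced from PSMA on C4-2 cells by a test compound titration over 1 h at 4 °C. Bound tracer was quantified as flow-cytometric AF488 median fluorescence after washing. Four-parameter logistic fits of MFI data gave IC50 and pIC50.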

[2] = target: T2, Fc-fusion protein of human PSMA (hPSMA-Fc) (Homo sapiens, UniProt Q04609); assay: Surface plasmon resonance assay (Biacore T200, single cycle kinetic); format: binding; details: PSMA SPR assay, hPSMA-Fc, 25° C.; pKD category; read-out: pKD CAT (converted)
T2 construct: purchased Acro Biosystems PSA-H5264
T2 sequence (Q04609 44-750 limits assumed): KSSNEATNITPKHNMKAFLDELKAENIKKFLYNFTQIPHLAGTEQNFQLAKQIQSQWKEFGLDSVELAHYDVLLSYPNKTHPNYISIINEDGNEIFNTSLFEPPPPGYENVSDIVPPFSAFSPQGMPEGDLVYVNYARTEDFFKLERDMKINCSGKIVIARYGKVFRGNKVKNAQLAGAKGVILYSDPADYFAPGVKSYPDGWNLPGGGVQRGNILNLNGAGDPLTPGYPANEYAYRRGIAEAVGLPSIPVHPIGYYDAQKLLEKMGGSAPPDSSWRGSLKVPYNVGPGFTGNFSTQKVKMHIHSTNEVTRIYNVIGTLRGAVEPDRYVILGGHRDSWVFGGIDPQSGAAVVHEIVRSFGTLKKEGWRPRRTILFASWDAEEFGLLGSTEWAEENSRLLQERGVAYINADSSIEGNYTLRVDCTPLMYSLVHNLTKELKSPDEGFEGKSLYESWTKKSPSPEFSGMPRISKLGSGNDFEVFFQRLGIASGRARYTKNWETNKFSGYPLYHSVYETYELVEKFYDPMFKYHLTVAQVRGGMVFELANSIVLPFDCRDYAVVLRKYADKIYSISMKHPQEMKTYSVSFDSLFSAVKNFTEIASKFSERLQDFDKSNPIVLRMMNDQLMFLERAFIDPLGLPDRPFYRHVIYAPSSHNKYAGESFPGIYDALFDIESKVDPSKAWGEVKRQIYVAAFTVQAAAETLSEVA
Procedure, shortened: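 KD, expressed as pKD, came from 1:1 Langmuir fits of reference- and buffer-blank-subtracted SPR data. The runs were single-cycle kinetics at 25° C in HBST/0.1% DMSO over human PSMA-Fc, captured to ~1000 RU on a peptide-coated CM5 surface and regenerated with 10 mM glycine pH 1.5.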

SMILES	IC50 [1] [nM]	Kd [2] [nM]
CC(=O)NCCCC[C@@H]1NC(=O)[C@H](CCCCN)NC(=O)[C@@H](NC(=O)[C@H](Cc2ccc(Cl)cc2)NC(=O)C(C)(C)NC(=O)[C@@H](NC(=O)CC2CCN(C(=O)CN3CCN(CC(=O)O)CCN(CC(=O)O)CCN(CC(=O)O)CC3)CC2)[C@@H](C)O)CSSC[C@@H](C(=O)N[C@H](C(=O)N[C@H](C(N)=O)[C@@H](C)O)C(C)(C)C)NC(=O)[C@H](CC(N)=O)NC(=O)C(C)(C)NC1=O [PSM-0341, DOTA-Cmp-Thr-Aib-Pcf-[Cys-Lys-Lys(Ac)-Aib-Asn-Cys]-Tle-Thr-NH2] ({DOTA}-[X1]T[Aib][Phe(4-Cl)]CKK(Ac)[Aib]NC[Tle]T-NH2; disulfide 5-10)	200 to 1260	< 12.6
C[C@@H]1NC(=O)[C@H](CCCNC(=N)N)NC(=O)[C@H](CCCCN)NC(=O)[C@@H](NC(=O)[C@H](Cc2ccccc2)NC(=O)[C@H](C)NC(=O)[C@@H](NC(=O)CCC(=O)NCCCOCCOCCOCCCNC(=O)CN2CCN(CC(=O)O)CCN(CC(=O)O)CCN(CC(=O)O)CC2)[C@@H](C)O)CSSC[C@@H](C(=O)N[C@H](C(=O)N[C@H](C(=O)N[C@@H](CC(=O)O)C(N)=O)[C@@H](C)O)C(C)(C)C)NC(=O)[C@H](CC(N)=O)NC1=O [PSM-0342, DOTA-Ttds-Thr-Ala-Phe-[Cys-Lys-Arg-Ala-Asn-Cys]-Tle-Thr-Asp-NH2] ({X3-Suc}-TAFCKRANC[Tle]TD-NH2; disulfide 4-9)	< 200	12.6 to 126
C[C@@H](O)[C@H](NC(=O)[C@@H](NC(=O)[C@@H]1CSSC[C@H](NC(=O)[C@H](Cc2ccc(Cl)cc2)NC(=O)[C@@H](CCC(=O)O)NC(=O)[C@@H](NC(=O)CC2CCN(C(=O)CN3CCN(CC(=O)O)CCN(CC(=O)O)CCN(CC(=O)O)CC3)CC2)[C@@H](C)O)C(=O)N[C@@H](CCCCN)C(=O)N[C@@H](CCCNC(=N)N)C(=O)NC(C)(C)C(=O)N[C@@H](CC(N)=O)C(=O)N1)C(C)(C)C)C(N)=O [PSM-0343, DOTA-Cmp-Thr-glu-Pcf-[Cys-Lys-Arg-Aib-Asn-Cys]-Tle-Thr-NH2] ({DOTA}-[X1]T[dE][Phe(4-Cl)]CKR[Aib]NC[Tle]T-NH2; disulfide 5-10)	> 3160	> 501
CNC(=N)NCCC[C@@H]1NC(=O)[C@H](CCCCN)NC(=O)[C@@H](NC(=O)[C@H](Cc2ccc(Cl)cc2)NC(=O)C(C)(C)NC(=O)[C@@H](NC(=O)CC2CCN(C(=O)CN3CCN(CC(=O)O)CCN(CC(=O)O)CCN(CC(=O)O)CC3)CC2)[C@@H](C)O)CSSC[C@@H](C(=O)N[C@H](C(N)=O)C(C)(C)C)NC(=O)[C@H](CC(N)=O)NC(=O)C(C)(C)NC1=O [PSM-0345, DOTA-Cmp-Thr-Aib-Pcf-[Cys-Lys-Arg(Me)-Aib-Asn-Cys]-Tle-NH2] ({DOTA}-[X1]T[Aib][Phe(4-Cl)]CK[Arg(Me)][Aib]NC[Tle]-NH2; disulfide 5-10)	< 200	< 12.6
C[C@@H](O)[C@H](NC(=O)[C@@H](NC(=O)[C@@H]1CSSC[C@H](NC(=O)[C@H](Cc2ccc(Cl)cc2)NC(=O)[C@](C)(CC(=O)O)NC(=O)[C@@H](NC(=O)CC2CCN(C(=O)CN3CCN(CC(=O)O)CCN(CC(=O)O)CCN(CC(=O)O)CC3)CC2)[C@@H](C)O)C(=O)N[C@@H](CCCCN)C(=O)N[C@@H](CCCNC(=N)N)C(=O)NC(C)(C)C(=O)N[C@@H](CC(N)=O)C(=O)N1)C(C)(C)C)C(N)=O [PSM-0346, DOTA-Cmp-Thr-Amd-Pcf-[Cys-Lys-Arg-Aib-Asn-Cys]-Tle-Thr-NH2] ({DOTA}-[X1]T[αMeD][Phe(4-Cl)]CKR[Aib]NC[Tle]T-NH2; disulfide 5-10)	200 to 1260	126 to 501
CC(=O)N[C@H](C(=O)NC(C)(C)C(=O)N[C@@H](Cc1ccccc1)C(=O)N[C@@H]1CSSC[C@@H](C(=O)N[C@H](C(=O)N[C@H](C(N)=O)[C@@H](C)O)C(C)(C)C)NC(=O)[C@H](CC(N)=O)NC(=O)C(C)(C)NC(=O)[C@H](CCCNC(=N)N)NC(=O)[C@H](CCCCN)NC1=O)[C@@H](C)O [PSM-0348, Ac-Thr-Aib-Phe-[cys-Lys-Arg-Aib-Asn-Cys]-Tle-Thr-NH2] (Ac-T[Aib]F[dC]KR[Aib]NC[Tle]T-NH2; disulfide 4-9)	> 3160	> 501
CC(=O)NC(C)(C)C(=O)N[C@@H](Cc1ccc(Cl)cc1)C(=O)N[C@H]1CSSC[C@@H](C(=O)N[C@H](C(=O)N[C@H](C(=O)N2CCC(CC(=O)N[C@H](CCCCNC(=O)CN3CCN(CC(=O)O)CCN(CC(=O)O)CCN(CC(=O)O)CC3)C(N)=O)CC2)[C@@H](C)O)C(C)(C)C)NC(=O)[C@H](CC(N)=O)NC(=O)C(C)(C)NC(=O)[C@H](CCCNC(=N)N)NC(=O)[C@H](CCCCN)NC1=O [PSM-0349, Ac-Aib-Pcf-[Cys-Lys-Arg-Aib-Asn-Cys]-Tle-Thr-Cmp-lys(DOTA)-NH2] (Ac-[Aib][Phe(4-Cl)]CKR[Aib]NC[Tle]T[X1][dK](DOTA)-NH2; disulfide 3-8)	< 200	< 12.6
CC(=O)N[C@H](C(=O)NC(C)(C)C(=O)N[C@@H](Cc1ccccc1)C(=O)N[C@H]1CSSC[C@@H](C(=O)N[C@@H](C(=O)N[C@H](C(N)=O)[C@@H](C)O)C(C)(C)C)NC(=O)[C@H](CC(N)=O)NC(=O)C(C)(C)NC(=O)[C@H](CCCNC(=N)N)NC(=O)[C@H](CCCCN)NC1=O)[C@@H](C)O [PSM-0350, Ac-Thr-Aib-Phe-[Cys-Lys-Arg-Aib-Asn-Cys]-leu-Thr-NH2] (Ac-T[Aib]FCKR[Aib]NC[dTle]T-NH2; disulfide 4-9)	200 to 1260	126 to 501
CNC(=N)NCCC[C@@H]1NC(=O)[C@H](CCCCN)NC(=O)[C@@H](NC(=O)[C@H](Cc2ccc(Cl)cc2)NC(=O)C(C)(C)NC(=O)[C@@H](NC(=O)CC2CCN(C(=O)CN3CCN(CC(=O)O)CCN(CC(=O)O)CCN(CC(=O)O)CC3)CC2)[C@@H](C)O)CSSC[C@@H](C(=O)N[C@H](C(=O)N[C@H](C(N)=O)[C@@H](C)O)C(C)(C)C)NC(=O)[C@H](CC(N)=O)NC(=O)C(C)(C)NC1=O [PSM-0351, DOTA-Cmp-Thr-Aib-Pcf-[Cys-Lys-Arg(Me)-Aib-Asn-Cys]-Tle-Thr-NH2] ({DOTA}-[X1]T[Aib][Phe(4-Cl)]CK[Arg(Me)][Aib]NC[Tle]T-NH2; disulfide 5-10)	< 200	< 12.6
C[C@@H](O)[C@H](NC(=O)[C@@H](NC(=O)[C@@H]1CSSC[C@H](NC(=O)[C@H](Cc2ccc(Cl)cc2)NC(=O)C(C)(C)NC(=O)CCNC(=O)CN2CCN(CC(=O)O)CCN(CC(=O)O)CCN(CC(=O)O)CC2)C(=O)N[C@@H](CCCCN)C(=O)N[C@@H](CCCNC(=N)N)C(=O)NC(C)(C)C(=O)N[C@@H](CC(N)=O)C(=O)N1)C(C)(C)C)C(N)=O [PSM-0352, DOTA-Bal-Aib-Pcf-[Cys-Lys-Arg-Aib-Asn-Cys]-Tle-Thr-NH2] ({DOTA-βAla}-[Aib][Phe(4-Cl)]CKR[Aib]NC[Tle]T-NH2; disulfide 3-8)	< 200	< 12.6
CC(C)CC(=O)NC(C)(C)C(=O)N[C@@H](Cc1ccc(Cl)cc1)C(=O)N[C@H]1CSSC[C@@H](C(=O)N[C@H](C(=O)N[C@H](C(N)=O)[C@@H](C)O)C(C)(C)C)NC(=O)[C@H](CC(N)=O)NC(=O)[C@H](CCCCNC(=O)CN2CCC(NC(=O)CN3CCN(CC(=O)O)CCN(CC(=O)O)CCN(CC(=O)O)CC3)CC2)NC(=O)[C@H](CCCNC(=N)N)NC(=O)[C@H](CCCCN)NC1=O [PSM-0353, Iva-Aib-Pcf-[Cys-Lys-Arg-Lys(DOTA-APAc)-Asn-Cys]-Tle-Thr-NH2] (Isovaleryl-[Aib][Phe(4-Cl)]CKRK(X7)NC[Tle]T-NH2; disulfide 3-8)	< 200	< 12.6
CNCCCC[C@@H]1NC(=O)[C@@H](NC(=O)[C@H](Cc2cccc(Cl)c2)NC(=O)C(C)(C)NC(=O)[C@@H](NC(=O)CC2CCN(C(=O)CN3CCN(CC(=O)O)CCN(CC(=O)O)CCN(CC(=O)O)CC3)CC2)[C@@H](C)O)CSSC[C@@H](C(=O)N[C@H](C(N)=O)C(C)(C)C)NC(=O)[C@H](CC(N)=O)NC(=O)C(C)(C)NC(=O)[C@H](CCCNC(=N)NC)NC1=O [PSM-0354, DOTA-Cmp-Thr-Aib-Mcf-[Cys-Lys(Me)-Arg(Me)-Aib-Asn-Cys]-Tle-NH2] ({DOTA}-[X1]T[Aib][Phe(3-Cl)]C[Lys(Me)][Arg(Me)][Aib]NC[Tle]-NH2; disulfide 5-10)	< 200	12.6 to 126
C/N=C(/NC)N(C)CCC[C@@H]1NC(=O)[C@H](CCCCNC)NC(=O)[C@@H](NC(=O)[C@H](Cc2ccc(Cl)cc2)NC(=O)C(C)(C)NC(=O)[C@@H](NC(=O)CC2CCN(C(=O)CN3CCN(CC(=O)O)CCN(CC(=O)O)CCN(CC(=O)O)CC3)CC2)[C@@H](C)O)CSSC[C@@H](C(=O)N[C@H](C(=O)N[C@H](C(N)=O)[C@@H](C)O)C(C)(C)C)NC(=O)[C@H](CC(N)=O)NC(=O)C(C)(C)NC1=O [PSM-0355, DOTA-Cmp-Thr-Aib-Pcf-[Cys-Lys(Me)-RMe3-Aib-Asn-Cys]-Tle-Thr-NH2] ({DOTA}-[X1]T[Aib][Phe(4-Cl)]C[Lys(Me)][X13][Aib]NC[Tle]T-NH2; disulfide 5-10)	200 to 1260	< 12.6
CC[C@H](C)[C@H](NC(=O)CC1CCN(C(=O)CN2CCN(CC(=O)O)CCN(CC(=O)O)CCN(CC(=O)O)CC2)CC1)C(=O)NC(C)(C)C(=O)N[C@@H](Cc1ccccc1)C(=O)N[C@H]1CSSC[C@@H](C(=O)N[C@H](C(=O)N[C@H](C(N)=O)[C@@H](C)O)C(C)(C)C)NC(=O)[C@H](CC(N)=O)NC(=O)C(C)(C)NC(=O)[C@H](CCCNC(=N)N)NC(=O)[C@H](CCCCN)NC1=O [PSM-0357, DOTA-Cmp-Ile-Aib-Phe-[Cys-Lys-Arg-Aib-Asn-Cys]-Tle-Thr-NH2] ({DOTA}-[X1]I[Aib]FCKR[Aib]NC[Tle]T-NH2; disulfide 5-10)	200 to 1260	12.6 to 126
